# Experimental data from PubChem BioAssay (NCI).
# “And” between values parts separate entries of the source, which are not always exact repeats. Equal entries are not always repeated.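 Step 1: Grow cells in 96-well plates. Step 2: Expose to compound for 48 hours at 5 concentrations. Step 3: Interpolate endpoints linearly; if unreached, use highest concentration. Here, GI50 denotes the concentration required for 50% inhibition of growth. TGI marks complete inhibition of growth.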
# Assays:
# Experiment in all cases: NCI anticancer screen, dose series, 48 h
# HCT-116 colon = tested on: HCT-116 colon
# HOP-92 NSCLC = tested on: HOP-92 NSCLC
# IGROV1 ovarian = tested on: IGROV1 ovarian
# MCF7 breast = tested on: MCF7 breast
# OVCAR-3 ovarian = tested on: OVCAR-3 ovarian
# OVCAR-4 ovarian = tested on: OVCAR-4 ovarian
# OVCAR-8 ovarian = tested on: OVCAR-8 ovarian
# SK-MEL-2 melanoma = tested on: SK-MEL-2 melanoma
# UO-31 renal = tested on: UO-31 renal
# UACC-257 melanoma = tested on: UACC-257 melanoma
Structure (SMILES),GI50 (HCT-116 colon) [µM],TGI (HCT-116 colon),GI50 (HOP-92 NSCLC) [µM],TGI (HOP-92 NSCLC) [µM],GI50 (IGROV1 ovarian) [µM],TGI (IGROV1 ovarian) [µM],GI50 (MCF7 breast) [µM],TGI (MCF7 breast) [µM],GI50 (OVCAR-3 ovarian) [µM],TGI (OVCAR-3 ovarian) [µM],GI50 (OVCAR-4 ovarian) [µM],TGI (OVCAR-4 ovarian) [µM],GI50 (OVCAR-8 ovarian) [µM],TGI (OVCAR-8 ovarian) [µM],GI50 (SK-MEL-2 melanoma) [µM],TGI (SK-MEL-2 melanoma) [µM],GI50 (UO-31 renal) [µM],TGI (UO-31 renal) [µM],TGI (UACC-257 melanoma),GI50 (UACC-257 melanoma) [µM]
COc1ccc(C2[C@@H](c3ccccc3)C(=O)N2c2cc(OC)c(OC)c(OC)c2)cc1F (stereo partly specified),0.0324,10.4 µM,2.84,> 100,0.0428,> 100,0.0296,> 100,0.028,0.077,0.0871,> 100,0.0344,> 100,0.0354,> 100,0.0771,> 100,–,–
O=C(O)c1ccc2c(c1C(=O)O)C(=O)OC2(c1ccc(O)cc1)c1ccc(O)cc1,–,> 100 µM,–,> 100,–,> 100,–,> 100,–,> 100,–,> 100,–,> 100,–,> 100,–,> 100,> 100 µM,–
CCCOc1cc2ccccc2cc1C(=O)Nc1nc(N)c2c(ccc3nccc32)[nH]1,0.0461,1.22 µM,0.0279,1.98,0.519,2.89,0.0459,1.5,0.0254,0.0819,1.55,4.37,0.203,1.69,0.0368,1.32,0.703,2.4,2.62 µM,1.21
CC(C)(C)c1cc2c(O)c3cccc4c(=O)c5cccc6c5-c(c34)c2c(c1)c6=O,–,> 100 µM,–,96.5,–,> 100,–,–,–,> 100,–,> 100,–,> 100,–,> 100,–,> 100,> 100 µM,–
Cc1cccc(C)c1NC(=O)CCCC(=O)C1/C(=N/NC(=O)CC#N)CCC/C1=N\NC(=O)CC#N (stereo unspecified),–,> 100 µM,–,> 100,–,> 100,–,–,–,> 100,–,> 100,–,> 100,–,> 100,–,> 100,> 100 µM,–
CCN1C(=O)N(c2ccccc2)C2NC(=S)N(/N=C/C=C/c3ccccc3OC)C21 (stereo unspecified),0.105,> 32.7 µM,2.15,> 85,0.136,10.8,0.0942,> 64.3,0.0778,0.221,0.263,> 67,0.118,> 84.3,0.166,> 76.2,0.486,> 100,> 88.5 µM,3.44
Cn1ccc2c3c(Oc4ccc(NC(N)=O)cc4)ccnc3ccc21,> 100,> 100 µM,–,–,> 100,> 100,> 100,> 100,> 100,> 100,> 100,> 100,> 100,> 100,> 100,> 100,> 100,> 100,> 100 µM,> 100
Nc1c(C(=O)Nc2cccc(C(F)(F)F)c2)sc2nc3c(cc12)CCCCC3,1.62,4.18 µM,1.82,6.23,–,–,2.35,13.6,2.84,11.5,1.21,3.9,3.49,19.8,3.16,19.3,1.64,4.88,37.4 µM,3.64
CCOC(=O)C1=C(C)N(c2ccc(F)cc2F)[C@]2(C#N)C(O)=C(Cl)C(Cl)=C(O)[C@]12C#N,> 100,> 100 µM,1.77,> 100,> 100,> 100,> 100,> 100,> 100,> 100,> 100,> 100,> 100,> 100,> 100,> 100,> 100,> 100,> 100 µM,> 100
COc1ccc2nc3cc(Cl)ccc3c(NCCNCC(C)O)c2c1 (stereo unspecified),0.751,3.17 µM,2.6,6.68,2.69,10.2,1.28,5.51,2.38,8.04,1.57,4.8,1.94,7.65,2.08,4.26,1.73,4.85,3.73 µM,2.14
Nc1n[nH]c2cccc(C#Cc3cccc(C(=O)Nc4ccc(CN5CCOCC5)c(C(F)(F)F)c4)c3)c12,1.53,5.2 µM,1.12,4.29,2.35,7.01,2.41,10.3,3.48,12.6,2.15,6.88,2.54,8.18,2.07,5.81,1.9,5.82,10.6 µM,2.41
COc1ccc(CCN=C2NC(=O)/C(=C/c3ccc4ncccc4c3)S2)cc1,> 25,> 25 µM,> 11.3,> 25,> 25,> 25,> 25,> 25,> 25,> 25,> 25,> 25,> 25,> 25,> 25,> 25,> 25,> 25,> 25 µM,> 25
O=S(=O)(c1ccccc1)N1CCN(S(=O)(=O)c2ccccc2)c2ccccc21,–,> 100 µM,–,> 100,–,> 100,–,> 100,–,> 100,–,> 100,–,> 100,–,> 100,–,> 100,> 100 µM,–
CC(C)[C@@H]1C=C2CC[C@H]3[C@](C)(CN)CCC[C@]3(C)[C@H]2CC1,1.77,3.18 µM,3.3,17.6,1.93,4.09,1.62,3.06,2.8,9.22,15.1,34.3,2.28,5.7,3.88,14.2,3.33,16.1,9.88 µM,2.9
Nc1cc(NN=C(c2ccc(O)cc2)c2ccc(O)cc2)c([N+](=O)[O-])cc1[N+](=O)[O-],2,4.23 µM,2.18,8.2,2.28,5.38,1.56,3.28,1.81,4.14,2.54,7.47,3.12,15.1,–,–,1.81,4.87,17.1 µM,4.3
C=CC[C@H](C[C@H](C[C@H](C[C@H](C[C@H](C[C@H](C[C@H](C[C@H](C[C@H](C[C@H](CCCCC)OC)OC)OC)OC)OC)OC)OC)OC)OC)OC,–,> 100 µM,–,> 100,–,> 100,–,–,–,> 100,–,> 100,–,> 100,–,> 100,–,> 100,> 100 µM,–

Structure (SMILES),GI50 (HCT-116 colon) [µM],TGI (HCT-116 colon),GI50 (HOP-92 NSCLC) [µM],TGI (HOP-92 NSCLC) [µM],GI50 (IGROV1 ovarian) [µM],TGI (IGROV1 ovarian) [µM],GI50 (MCF7 breast) [µM],TGI (MCF7 breast) [µM],GI50 (OVCAR-3 ovarian) [µM],TGI (OVCAR-3 ovarian) [µM],GI50 (OVCAR-4 ovarian) [µM],TGI (OVCAR-4 ovarian) [µM],GI50 (OVCAR-8 ovarian) [µM],TGI (OVCAR-8 ovarian) [µM],GI50 (SK-MEL-2 melanoma) [µM],TGI (SK-MEL-2 melanoma) [µM],GI50 (UO-31 renal) [µM],TGI (UO-31 renal) [µM],TGI (UACC-257 melanoma),GI50 (UACC-257 melanoma) [µM]
C/C(=N/Nc1ccc([N+](=O)[O-])cc1[N+](=O)[O-])C(CC(C(=O)NCc1ccccc1)/C(C)=N\Nc1ccc([N+](=O)[O-])cc1[N+](=O)[O-])C(=O)NCc1ccccc1 (stereo unspecified),–,16.4 µM,–,7.98,–,31,–,–,–,24.5,–,5.59,–,4.73,–,23.9,–,14.2,18 µM,–
CCC(=C/[C@H](C)C/C=C/C(C)=C/[C@@H](C)C(=O)[C@@H](C)[C@H](O)[C@@H](C)CC)/C=C/[C@H]1OC(=O)C=C[C@@H]1C,< 0.01,0.0106 µM,< 0.01,1.2,< 0.01,7.67,< 0.01,1.26,< 0.01,3.96,< 0.01,3.67,< 0.01,10.3,< 0.01,–,< 0.01,1.87,–,–
CCc1c(OC(C)=O)c2c(NC3OCC(OC(C)=O)C(OC(C)=O)C3OC(C)=O)nc(SC)nc2oc1=O (stereo unspecified),–,> 100 µM,–,> 100,–,> 100,–,–,–,> 100,–,> 100,–,> 100,–,> 100,–,> 100,> 100 µM,–
O=C(Nc1ccccc1-c1nn(C(=S)Nc2ccccc2)c(=S)n(C(=S)Nc2ccccc2)c1=O)C(F)(F)F,–,> 51.4 µM,–,57.9,–,> 100,–,–,–,> 72.5,–,> 31.6,–,> 90.3,–,> 66.7,–,50.3,31.4 µM,–
CCCCN(CCCC)C(=O)C(=O)C(C(=O)c1ccc(OC)cc1)c1ccc(OC)cc1 (stereo unspecified),–,> 100 µM,–,> 100,–,> 100,–,–,–,> 100,–,> 100,–,> 100,–,> 100,–,> 100,> 100 µM,–
O=C1CN(c2cccc(Cl)c2)C(=O)CN1CCN1CC(=O)N(c2cccc(Cl)c2)CC1=O,–,> 100 µM,–,> 100,–,> 100,–,> 100,–,> 100,–,> 100,–,> 100,–,–,–,> 100,> 100 µM,–
CC1=C2C(=C[C@@](C)(CO)[C@@H]2O)C(=O)[C@](C)(O)C12CC2,–,0.104 µM and 0.135 µM,–,0.061,–,0.0583,–,0.0687,–,–,–,0.0267,–,0.0311,–,0.0297,–,0.0422,0.0308 µM and 0.0229 µM,–
O=C(O)c1nc2nc(Cl)c(Cl)nc2[nH]1,–,> 100 µM,–,> 100,–,> 100,–,> 100,–,> 100,–,> 100,–,> 100,–,> 100,–,–,> 100 µM,–
O=C(Oc1ccc(Cl)cc1)c1ccccc1Nc1ccnc(C(F)(F)F)c1,–,–,20.8,> 100,15.3,> 100,3.73,14.7,11.6,26.4,–,–,4.04,35.5,20.2,> 100,28.2,> 100,24.4 µM,4.51
COc1ccc(OC)c(N2CC(N)C2=O)c1 (stereo unspecified),–,> 100 µM,–,> 100,–,> 100,–,–,–,> 100,–,> 100,–,> 100,–,> 100,–,> 100,> 100 µM,–
COc1cc(-c2ccc3cc(OC)c(OC)c(OC)c3c2)cc(OC)c1OC,11.9,> 100 µM,2.17,14.1,40.4,> 100,> 100,> 100,> 100,> 100,> 100,> 100,> 100,> 100,16.6,> 100,–,–,> 100 µM,> 100
O=S(=O)(N/N=C/c1cccc(/C=N/NS(=O)(=O)c2ccccc2)c1)c1ccccc1,–,> 100 µM,–,97.2,–,> 100,–,–,–,> 100,–,> 100,–,> 100,–,> 100,–,> 100,> 100 µM,–
O=c1c(-c2ccccc2)c2oc(c1-c1ccccc1)CSCc1cccc(c1)CSC2,–,> 100 µM,–,> 100,–,> 100,–,–,–,77,–,> 100,–,> 100,–,> 100,–,> 100,> 100 µM,–
CC(=O)CC(OC(C)=O)C1=CCC2C(CC1C)OC(=O)C2C (stereo unspecified),–,> 100 µM,–,> 100,–,> 100,–,> 100,–,> 100,–,> 100,–,> 100,–,> 100,–,–,> 100 µM,–
CC(C)=CCC(O)C1=CC(=O)c2c(O)ccc(O)c2C1=O (stereo unspecified),–,2.6 µM,–,–,–,3.31,–,2.11,–,2.55,–,4.84,–,3.35,–,3.83,–,2.93,3.24 µM,–
CCn1c(-c2nonc2N)nc2c(C#CC(C)(C)O)nc(OC[C@@H](N)c3ccccc3)cc21,4.13,7.63 µM,–,–,5.04,10.4,2.94,6.12,4.24,8.23,6.78,13.3,4.45,8.83,5.83,10.2,5.08,9.4,9.83 µM,5.67
